Results reported in PubChem BioAssay (NCI).
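Exposure lasted 48 hours, with cells grown in 96-well plates and compounds tested at five concentrations. TGI denotes the concentration required for complete inhibition of growth.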

How the values were obtained:
Assay in all cases: NCI-60 cell line screen, 48 h
T-47D breast = tested on: T-47D breast
IGROV1 ovarian = tested on: IGROV1 ovarian
U251 CNS = tested on: U251 CNS
CAKI-1 renal = tested on: CAKI-1 renal
COLO 205 colon = tested on: COLO 205 colon
TK-10 renal = tested on: TK-10 renal
HS 578T breast = tested on: HS 578T breast
NCI/ADR-RES ovarian = tested on: NCI/ADR-RES ovarian
A498 renal = tested on: A498 renal
DU-145 prostate = tested on: DU-145 prostate
SF-295 CNS = tested on: SF-295 CNS
SNB-19 CNS = tested on: SNB-19 CNS
OVCAR-5 ovarian = tested on: OVCAR-5 ovarian
BT-549 breast = tested on: BT-549 breast
EKVX NSCLC = tested on: EKVX NSCLC
UACC-62 melanoma = tested on: UACC-62 melanoma
K-562 leukemia = tested on: K-562 leukemia
MOLT-4 leukemia = tested on: MOLT-4 leukemia
LOX IMVI melanoma = tested on: LOX IMVI melanoma
HCT-15 colon = tested on: HCT-15 colon
ACHN renal = tested on: ACHN renal
SR leukemia = tested on: SR leukemia
SK-MEL-5 melanoma = tested on: SK-MEL-5 melanoma
MCF7 breast = tested on: MCF7 breast
NCI-H522 lung = tested on: NCI-H522 lung
OVCAR-8 ovarian = tested on: OVCAR-8 ovarian
RXF 393 renal = tested on: RXF 393 renal
PC-3 prostate = tested on: PC-3 prostate
SK-MEL-28 melanoma = tested on: SK-MEL-28 melanoma
MDA-MB-435 = tested on: MDA-MB-435
MALME-3M melanoma = tested on: MALME-3M melanoma
SN12C renal = tested on: SN12C renal
SF-539 CNS = tested on: SF-539 CNS
A549 NSCLC = tested on: A549 NSCLC
OVCAR-4 ovarian = tested on: OVCAR-4 ovarian
MDA-MB-231 breast = tested on: MDA-MB-231 breast
NCI-H460 lung = tested on: NCI-H460 lung
SNB-75 CNS = tested on: SNB-75 CNS
786-0 renal = tested on: 786-0 renal
SK-MEL-2 melanoma = tested on: SK-MEL-2 melanoma
HCT-116 colon = tested on: HCT-116 colon
HT29 colon = tested on: HT29 colon
CCRF-CEM leukemia = tested on: CCRF-CEM leukemia
MDA-N = tested on: MDA-N
M14 melanoma = tested on: M14 melanoma
NCI-H226 lung = tested on: NCI-H226 lung
HCC-2998 colon = tested on: HCC-2998 colon
HOP-92 NSCLC = tested on: HOP-92 NSCLC
UACC-257 melanoma = tested on: UACC-257 melanoma
SK-OV-3 ovarian = tested on: SK-OV-3 ovarian
UO-31 renal = tested on: UO-31 renal
SF-268 CNS = tested on: SF-268 CNS
OVCAR-3 ovarian = tested on: OVCAR-3 ovarian
NCI-H23 lung = tested on: NCI-H23 lung
KM12 colon = tested on: KM12 colon
SW-620 colon = tested on: SW-620 colon
RPMI-8226 leukemia = tested on: RPMI-8226 leukemia
HL-60(TB) leukemia = tested on: HL-60(TB) leukemia
HOP-62 NSCLC = tested on: HOP-62 NSCLC

## CC(C)=CC(=O)c1[nH]c2ccccc2c1CC(=O)NCCc1cncn1C
T-47D breast
  TGI: > 100 µM
IGROV1 ovarian
  TGI: > 100 µM
U251 CNS
  TGI: > 100 µM
CAKI-1 renal
  TGI: > 100 µM
COLO 205 colon
  TGI: 79.6 µM
TK-10 renal
  TGI: > 100 µM
HS 578T breast
  TGI: > 100 µM
NCI/ADR-RES ovarian
  TGI: > 100 µM
A498 renal
  TGI: 91.9 µM
DU-145 prostate
  TGI: > 100 µM
SF-295 CNS
  TGI: > 100 µM
SNB-19 CNS
  TGI: > 100 µM
OVCAR-5 ovarian
  TGI: > 100 µM
BT-549 breast
  TGI: > 100 µM
EKVX NSCLC
  TGI: 83.4 µM
UACC-62 melanoma
  TGI: > 100 µM
K-562 leukemia
  TGI: > 100 µM
MOLT-4 leukemia
  TGI: > 100 µM
LOX IMVI melanoma
  TGI: > 100 µM
HCT-15 colon
  TGI: > 100 µM
ACHN renal
  TGI: > 100 µM
SR leukemia
  TGI: 68 µM
SK-MEL-5 melanoma
  TGI: > 100 µM
MCF7 breast
  TGI: > 100 µM
NCI-H522 lung
  TGI: 84.6 µM
OVCAR-8 ovarian
  TGI: > 100 µM
RXF 393 renal
  TGI: 83.4 µM
PC-3 prostate
  TGI: > 100 µM
SK-MEL-28 melanoma
  TGI: > 100 µM
MDA-MB-435
  TGI: > 100 µM
MALME-3M melanoma
  TGI: > 100 µM
SN12C renal
  TGI: > 100 µM
SF-539 CNS
  TGI: > 100 µM
A549 NSCLC
  TGI: > 100 µM
OVCAR-4 ovarian
  TGI: > 100 µM
MDA-MB-231 breast
  TGI: > 100 µM
NCI-H460 lung
  TGI: > 100 µM
SNB-75 CNS
  TGI: > 100 µM
786-0 renal
  TGI: > 100 µM
SK-MEL-2 melanoma
  TGI: > 100 µM
HCT-116 colon
  TGI: > 100 µM
HT29 colon
  TGI: > 100 µM
CCRF-CEM leukemia
  TGI: > 100 µM
MDA-N
  TGI: > 100 µM
M14 melanoma
  TGI: > 100 µM
NCI-H226 lung
  TGI: > 100 µM
HCC-2998 colon
  TGI: 81.5 µM
HOP-92 NSCLC
  TGI: > 100 µM
UACC-257 melanoma
  TGI: > 100 µM
SK-OV-3 ovarian
  TGI: > 100 µM
UO-31 renal
  TGI: 47.6 µM
SF-268 CNS
  TGI: > 100 µM
OVCAR-3 ovarian
  TGI: > 100 µM
NCI-H23 lung
  TGI: > 100 µM
KM12 colon
  TGI: > 100 µM
SW-620 colon
  TGI: > 100 µM

## O=C(CC1C=Cc2ccccc2N1C(=O)c1ccccc1)c1ccccc1 (centres undefined)
T-47D breast
  TGI: > 100 µM
IGROV1 ovarian
  TGI: > 100 µM
RPMI-8226 leukemia
  TGI: 39.9 µM
U251 CNS
  TGI: 65.1 µM
CAKI-1 renal
  TGI: > 100 µM
COLO 205 colon
  TGI: 42.5 µM
TK-10 renal
  TGI: > 100 µM
HS 578T breast
  TGI: 67.4 µM
NCI/ADR-RES ovarian
  TGI: > 100 µM
HL-60(TB) leukemia
  TGI: 43.4 µM
A498 renal
  TGI: 93.5 µM
DU-145 prostate
  TGI: > 100 µM
SF-295 CNS
  TGI: 78.1 µM
SNB-19 CNS
  TGI: > 100 µM
OVCAR-5 ovarian
  TGI: > 100 µM
BT-549 breast
  TGI: 69.7 µM
EKVX NSCLC
  TGI: 47.4 µM
UACC-62 melanoma
  TGI: 28.5 µM
K-562 leukemia
  TGI: > 100 µM
MOLT-4 leukemia
  TGI: 34.6 µM
LOX IMVI melanoma
  TGI: 67.8 µM
HCT-15 colon
  TGI: > 100 µM
ACHN renal
  TGI: > 100 µM
SR leukemia
  TGI: 35.4 µM
SK-MEL-5 melanoma
  TGI: 30.2 µM
MCF7 breast
  TGI: > 100 µM
NCI-H522 lung
  TGI: 53.2 µM
OVCAR-8 ovarian
  TGI: > 100 µM
RXF 393 renal
  TGI: > 100 µM
PC-3 prostate
  TGI: 96.6 µM
SK-MEL-28 melanoma
  TGI: > 100 µM
MDA-MB-435
  TGI: 47.8 µM
MALME-3M melanoma
  TGI: 61 µM
SN12C renal
  TGI: 45.9 µM
SF-539 CNS
  TGI: 66.7 µM
A549 NSCLC
  TGI: > 100 µM
OVCAR-4 ovarian
  TGI: > 100 µM
MDA-MB-231 breast
  TGI: 94 µM
NCI-H460 lung
  TGI: > 100 µM
SNB-75 CNS
  TGI: > 100 µM
786-0 renal
  TGI: > 100 µM
SK-MEL-2 melanoma
  TGI: 38.8 µM
HCT-116 colon
  TGI: 45.6 µM
HT29 colon
  TGI: 40.2 µM
CCRF-CEM leukemia
  TGI: > 100 µM
MDA-N
  TGI: 39 µM
M14 melanoma
  TGI: 65.6 µM
NCI-H226 lung
  TGI: 99.9 µM
HOP-92 NSCLC
  TGI: 86 µM
UACC-257 melanoma
  TGI: 61.3 µM
SK-OV-3 ovarian
  TGI: > 100 µM
HOP-62 NSCLC
  TGI: > 100 µM
UO-31 renal
  TGI: > 100 µM
SF-268 CNS
  TGI: > 100 µM
OVCAR-3 ovarian
  TGI: 34.7 µM
NCI-H23 lung
  TGI: > 100 µM
KM12 colon
  TGI: 61.8 µM
SW-620 colon
  TGI: > 100 µM

## Br[C@@H]1[C@H]2c3nc4ccccc4nc3[C@@H]1C[C@H]2Br
T-47D breast
  TGI: > 100 µM
IGROV1 ovarian
  TGI: > 100 µM
U251 CNS
  TGI: > 100 µM
CAKI-1 renal
  TGI: > 100 µM
COLO 205 colon
  TGI: > 100 µM
TK-10 renal
  TGI: > 100 µM
HS 578T breast
  TGI: > 100 µM
NCI/ADR-RES ovarian
  TGI: > 100 µM
HL-60(TB) leukemia
  TGI: > 100 µM
A498 renal
  TGI: > 100 µM
DU-145 prostate
  TGI: > 100 µM
SF-295 CNS
  TGI: > 100 µM
SNB-19 CNS
  TGI: > 100 µM
OVCAR-5 ovarian
  TGI: > 100 µM
BT-549 breast
  TGI: > 100 µM
EKVX NSCLC
  TGI: > 100 µM
UACC-62 melanoma
  TGI: > 100 µM
K-562 leukemia
  TGI: > 100 µM
MOLT-4 leukemia
  TGI: > 100 µM
LOX IMVI melanoma
  TGI: > 100 µM
HCT-15 colon
  TGI: > 100 µM
ACHN renal
  TGI: > 100 µM
SR leukemia
  TGI: > 100 µM
SK-MEL-5 melanoma
  TGI: 69.5 µM
MCF7 breast
  TGI: > 100 µM
NCI-H522 lung
  TGI: > 100 µM
OVCAR-8 ovarian
  TGI: > 100 µM
RXF 393 renal
  TGI: 94.6 µM
PC-3 prostate
  TGI: > 100 µM
SK-MEL-28 melanoma
  TGI: > 100 µM
MDA-MB-435
  TGI: > 100 µM
MALME-3M melanoma
  TGI: > 100 µM
SN12C renal
  TGI: > 100 µM
A549 NSCLC
  TGI: > 100 µM
OVCAR-4 ovarian
  TGI: > 100 µM
MDA-MB-231 breast
  TGI: > 100 µM
NCI-H460 lung
  TGI: > 100 µM
786-0 renal
  TGI: > 100 µM
HCT-116 colon
  TGI: > 100 µM
HT29 colon
  TGI: > 100 µM
CCRF-CEM leukemia
  TGI: > 100 µM
MDA-N
  TGI: > 100 µM
M14 melanoma
  TGI: > 100 µM
NCI-H226 lung
  TGI: 86.2 µM
HCC-2998 colon
  TGI: > 100 µM
HOP-92 NSCLC
  TGI: > 100 µM
UACC-257 melanoma
  TGI: > 100 µM
SK-OV-3 ovarian
  TGI: > 100 µM
HOP-62 NSCLC
  TGI: > 100 µM
UO-31 renal
  TGI: > 100 µM
SF-268 CNS
  TGI: > 100 µM
OVCAR-3 ovarian
  TGI: > 100 µM
NCI-H23 lung
  TGI: > 100 µM
KM12 colon
  TGI: > 100 µM
SW-620 colon
  TGI: > 100 µM
